Earlier results, collected in US6890568B2, “Method for management of blood glucose levels” (priority 1999, dated 2005).

System: insulin-deficient, streptozotocin-induced rat model of diabetes
Conditions: vanadate in the drinking water

In the case of `[O]=[V]([O-])([O-])[O-]` [vanadate], the control of diabetes is listed as “shown to control diabetes” and the side effects is listed as “life-threatening diarrhea”.
